Measured values: paper PMC9475553, “SHF Acts as a Novel Tumor Suppressor in Glioblastoma Multiforme by Disrupting STAT3 Dimerization” (Advanced Science, 2022)
No end group written: not given here.

Biological target: immobilized STAT3 (Homo sapiens, UniProt P40763)
Assay: Static adsorption equilibrium assay, immobilized STAT3
Format: binding
Settings: immobilized STAT3 85 nmol g^−1 wet gel; peptide 2-20 µM in PBS, stirred 12 h; free peptide by NanoDrop absorbance 240 nm; Langmuir isotherm; mean ± SD; read-out: equilibrium dissociation constant KD
From the text: Considering that the SH2 domain predominantly represents the inhibition of SHF on STAT3 dimerization and activity, we speculated that this domain may be an optional target for GBM suppression. To this end, we analyzed the mechanical interaction of SHF and STAT3. The structures of human SHF (aa265‐421) and STAT3 (aa130‐715). both of which spanned their respective SH2 domain. were simulated by Swiss‐Model server (https://swissmodel.expasy.org/). To simulate the interaction of SHF and STAT3, Discovery studio 2018 was employed to complete protein‐protein docking using ZDOCK as an initial stage. A rigid body molecular docking algorithm utilizing a fast Fourier transform (FFT) algorithm was used to further improve performance for searching in translational space. All the available structures from PDB were used to calculate the docking poses and the structures obtained were subjected to energy minimization filtration using the smart minimize algorithm (Max steps 200, RMS gradient 0.01). The highest resulting ZDock score was used as the appropriate conformational pose. […] Since these two spots are located closely to one another, the sequence spanning amino acids 388–421 was used as a peptide design master. To obtain a peptide with high internalization efficiency and a strong half‐life, we introduced a palmitic acid at the N‐terminus of the master sequence and amidated the C‐terminus. The designed peptide was named C16. A scrambled peptide containing a scrambled sequence targeting Spot1 was named SC and served as a negative control peptide. […] The static adsorption equilibrium experiment of immobilized STAT3 peptide was used to detect the binding rate of the synthesized peptide with STAT3 (Figure 7C). The concentration of immobilized STAT3 used was 85 nmol g^−1 wet gel. […] Thus, C16 acted as a powerful inhibitor of STAT3 dimerization and associated activity. Next, we determined the implication of C16 in tumor inhibition. […] A concentration of 25 uM was determined to be adequate for use in the subsequent experiments. […] Further, the impact of C16 on tumor propagation was examined in an intracranial xenograft model. U87 cells expressing luciferase were implanted into mouse brains. The mice were injected intraperitoneally (i.p.) with C16 or SC once every 2 days from the third day after cell transplantation. […] To investigate the effect of C16 on cell proliferation, EdU was injected 24 h prior to sacrifice.
Figure 7 Peptide derived from the STAT3‐binding sites of SHF is an effective GBM suppressive strategy. A) Binding model between SHF and STAT3 using ZDOCK server. […] B) IF staining determined the cell penetrability and nuclear‐localization of C16. U251 cells were incubated with C16 or SC for 2 h and performed IF staining using the indicated antibodies. Bars, 10 µm. C) The statical analysis of adsorption equilibrium assay detecting the binding of C16 and SC with recombinant STAT3. D) Pull‐down assay indicating C16 binds STAT3. GST‐STAT3 was incubated with C16 or SC for 2 h, and the pull‐down assay was performed using Anti‐His magnetic beads. E) IP assay showing the effect of C16 on STAT3 dimerization. 293T cells transfected with indicated vectors were incubated with C16 for 2 h. The relative quantification of STAT3 dimerization was listed. F) IP assay detecting the effect of C16 on the interaction of STAT3 and DNMT1. […] The relative quantification of STAT3/DNMT1 interaction was listed. […] The relative quantification of STAT3/DNMT1 interaction was listed. […]

Chain of immobilized STAT3 (P40763 whole entry): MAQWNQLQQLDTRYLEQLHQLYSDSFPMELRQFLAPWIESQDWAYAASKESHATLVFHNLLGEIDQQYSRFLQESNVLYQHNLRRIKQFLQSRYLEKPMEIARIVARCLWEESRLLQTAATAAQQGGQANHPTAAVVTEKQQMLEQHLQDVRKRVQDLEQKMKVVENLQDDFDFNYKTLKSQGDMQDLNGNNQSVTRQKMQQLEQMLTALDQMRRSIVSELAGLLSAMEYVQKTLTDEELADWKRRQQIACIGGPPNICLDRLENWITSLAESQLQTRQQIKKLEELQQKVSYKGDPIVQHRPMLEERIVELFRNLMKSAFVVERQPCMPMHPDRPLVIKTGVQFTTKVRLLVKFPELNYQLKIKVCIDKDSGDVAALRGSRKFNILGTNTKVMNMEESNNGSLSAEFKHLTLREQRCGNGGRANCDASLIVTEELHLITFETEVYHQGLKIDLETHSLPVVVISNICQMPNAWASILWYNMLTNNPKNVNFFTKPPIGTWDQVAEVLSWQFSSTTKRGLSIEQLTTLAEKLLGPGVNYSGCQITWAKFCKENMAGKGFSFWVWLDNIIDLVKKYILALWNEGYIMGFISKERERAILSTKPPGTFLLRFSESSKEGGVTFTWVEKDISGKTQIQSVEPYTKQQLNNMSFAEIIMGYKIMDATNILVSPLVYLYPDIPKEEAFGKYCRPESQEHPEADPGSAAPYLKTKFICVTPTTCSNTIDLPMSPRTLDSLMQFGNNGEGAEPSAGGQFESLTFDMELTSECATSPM

Kd: 4.08 ± 0.63 µM
Sequence: PASSNCEIVPMYHIRKLPIKGAEHMSLLYPVAIR [SC, reference compound]
